From patent publication US7691901B2, “Carotenoid analogs or derivatives for the inhibition and amelioration of inflammation” (Cardax Pharmaceuticals Inc., priority 2004, dated 2010)

How the values were obtained:
[1] = assay type: physicochemical
Description: Determination of aqueous solubility/dispersibility. 30.13 mg of 3 was added to 1 mL of USP-purified water. The sample was rotated for 2 hours, then centrifuged for 5 minutes. […] A 125-μL aliquot of the solution was then diluted to 25 mL. The sample was analyzed by UV/Vis spectroscopy at 436 nm, and the absorbance was compared to a standard curve compiled from 4 standards of known concentration.
The sample was rotated for 2 hours, then centrifuged for 5 minutes. […] A 125-μL aliquot of the solution was then diluted to 25 mL. The sample was analyzed by UV/Vis spectroscopy at 411 nm, and the absorbance was compared to a standard curve compiled from 4 standards of known concentration.

superoxide anion = assay: Direct superoxide anion scavenging by EPR spectroscopy (DEPMPO spin-trap) in PMA-stimulated isolated human neutrophils; assay type: cell-based
Description: Leukocyte Isolation and Preparation. Human polymorphonuclear leukocytes (PMNs) were isolated from freshly sampled venous blood of a single volunteer by Percoll density gradient centrifugation as described previously. Briefly, each 10 mL of whole blood was mixed with 0.8 mL of 0.1 M EDTA and 25 mL of saline. The diluted blood was then layered over 9 mL of Percoll at a specific density of 1.080 g/mL. After centrifugation at 400×g for 20 min at 20° C., the plasma, mononuclear cell, and Percoll layers were removed. Erythrocytes were subsequently lysed by addition of 18 mL of ice-cold water for 30 s, followed by 2 mL of 10× PIPES buffer (25 mM PIPES, 110 mM NaCl, and 5 mM KCl, titrated to pH 7.4 with NaOH). Cells were then pelleted at 4° C., the supernatant was decanted, and the procedure was repeated. After the second hypotonic cell lysis, cells were washed twice with PAG buffer [PIPES buffer containing 0.003% human serum albumin (HSA) and 0.1% glucose]. Afterward, PMNs were counted by light microscopy on a hemocytometer. The isolation yielded PMNs with a purity of >95%. The final pellet was then suspended in PAG-CM buffer (PAG buffer with 1 mM CaCl2 and 1 mM MgCl2). EPR Measurements. All EPR measurements were performed using a Bruker ER 300 EPR spectrometer operating at X-band with a TM110 cavity as previously described. The microwave frequency was measured with a Model 575 microwave counter (EIP Microwave, Inc., San Jose, Calif.). To measure superoxide anion (O2) generation from phorbol-ester (PMA)-stimulated PMNs, EPR spin-trapping studies were performed using the spin trap DEPMPO (Oxis, Portland, Oreg.) at 10 mM. 1×10^6 PMNs were stimulated with PMA (1 ng/mL) and loaded into capillary tubes for EPR measurements. To determine the radical scavenging ability of 3 and 9 in aqueous and ethanolic formulations, PMNs were pre-incubated for 5 minutes with test compound, followed by PMA stimulation.
Instrument settings used in the spin-trapping experiments were as follows: modulation amplitude, 0.32 G; time constant, 0.16 s; scan time, 60 s; modulation frequency, 100 kHz; microwave power, 20 milliwatts; and microwave frequency, 9.76 GHz. The samples were placed in a quartz EPR flat cell, and spectra were recorded. The component signals in the spectra were identified and quantified as reported previously.

[2] = target: human serum albumin (HSA) (Homo sapiens, UniProt P02768); assay: Plasma-protein binding studies in vitro
Chain of human serum albumin (HSA) (P02768 25-609): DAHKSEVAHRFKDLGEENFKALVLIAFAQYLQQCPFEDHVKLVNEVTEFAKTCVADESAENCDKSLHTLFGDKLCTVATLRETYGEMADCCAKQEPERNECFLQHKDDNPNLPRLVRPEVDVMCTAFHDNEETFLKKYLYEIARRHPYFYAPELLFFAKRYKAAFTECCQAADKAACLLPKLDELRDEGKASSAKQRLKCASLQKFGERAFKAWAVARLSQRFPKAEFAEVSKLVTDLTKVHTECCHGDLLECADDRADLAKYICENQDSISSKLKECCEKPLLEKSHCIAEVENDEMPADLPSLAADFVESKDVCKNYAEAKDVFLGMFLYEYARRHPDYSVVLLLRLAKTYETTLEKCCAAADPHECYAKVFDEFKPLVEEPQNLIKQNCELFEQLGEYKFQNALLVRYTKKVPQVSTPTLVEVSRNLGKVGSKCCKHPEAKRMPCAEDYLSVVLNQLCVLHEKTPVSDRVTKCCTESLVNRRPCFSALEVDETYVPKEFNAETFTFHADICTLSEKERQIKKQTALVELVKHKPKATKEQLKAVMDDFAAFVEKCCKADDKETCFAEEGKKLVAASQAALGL

For “3,3′-Diphosphoryloxy-β,ε-carotene sodium salt [compound 9]”, the “increase in dispersibility of diphosphate salt over disuccinate sodium salt” value [1] was > 10 fold, the “Mean (% inhibition) of superoxide anion signal” value (“Mean (% inhibition)” below) (superoxide anion; 0.1 mM, 40% EtOH (EtOH vehicle alone 5%), listed as Lutein Diphosphate Sodium Salt, sodium salt) was 18.0% and the “Mean (% inhibition)” value (superoxide anion; 0.1 mM, 40% EtOH (EtOH vehicle alone 5%), listed as disodium diphosphate derivative of natural source lutein, sodium salt) was 18%. For the same compound, the “Mean (% inhibition)” value (superoxide anion; 0.1 mM, Water, listed as disodium diphosphate derivative of natural source lutein, sodium salt) was 0%, the “Mean (% inhibition)” value (superoxide anion; 1.0 mM, Water) was 9.3% and the “Mean (% inhibition)” value (superoxide anion; 3.0 mM, Water) was 72.3%. For the same compound, the “Mean (% inhibition)” value (superoxide anion; 5.0 mM, Water, listed as Lutein Diphosphate Sodium Salt, sodium salt) was 91.0% and the “Mean (% inhibition)” value (superoxide anion; 5.0 mM, Water, listed as disodium diphosphate derivative of natural source lutein, sodium salt) was “more than 90%”.

For CC1=C(/C=C/C(C)=C/C=C/C(C)=C/C=C/C=C(C)/C=C/C=C(C)/C=C/C2=C(C)C(=O)[C@@H](O)CC2(C)C)C(C)(C)C[C@H](O)C1=O [astaxanthin, reference compound], the “water solubility” value [1] was “insoluble in water”.

With CC(C=CC=C(C)C=CC1=C(C)C(=O)C(OC(=O)CCC(=O)[O-])CC1(C)C)=CC=CC=C(C)C=CC=C(C)C=CC1=C(C)C(=O)C(OC(=O)CCC(=O)[O-])CC1(C)C.[Na+].[Na+] [meso-(3R,3′S)-disodium disuccinate astaxanthin] the “binding to human serum albumin” value [2] was “bound immediately and preferentially to human serum albumin (HSA)”.

For “β,ε-carotenyl 3,3′-disuccinate sodium salt [compound 3]”, the “Aqueous dispersibility (concentration of supernatant)” value ([1]; 2 h) was 2.85 mg/mL, the “Mean (% inhibition)” value (superoxide anion; 0.1 mM, 40% EtOH (EtOH vehicle alone 5%), listed as Lutein Disuccinate Sodium Salt, sodium salt) was 5.0% and the “Mean (% inhibition)” value (superoxide anion; 0.1 mM, 40% EtOH (EtOH vehicle alone 5%), listed as disodium disuccinate derivative of natural source lutein, sodium salt) was “did not significantly increase scavenging”. The “Mean (% inhibition)” value (superoxide anion; 0.1 mM, Water) was 0%, the “Mean (% inhibition)” value (superoxide anion; 1.0 mM, Water) was 13.0% and the “Mean (% inhibition)” value (superoxide anion; 3.0 mM, Water) was 61.7%. The “Mean (% inhibition)” value (superoxide anion; 5.0 mM, Water, listed as Lutein Disuccinate Sodium Salt, sodium salt) was 74.7%, the “Mean (% inhibition)” value (superoxide anion; 5.0 mM, Water, listed as disodium disuccinate derivative of natural source lutein, sodium salt) was ~75% and the “Mean (% inhibition)” value (superoxide anion; 5.0 mM, Water, listed as disuccinate lutein sodium salt, sodium salt) was 75%.
